As usually defined, the IC50 is the concentration that gives 50% inhibition. A higher IC50 goes with weaker potency in that assay.

The target in this test is T1, ENL YEATS domain (6×HIS ENL YEATS Domain) binding to H3K9cr peptide (Homo sapiens, UniProt Q03111).
T1 construct: aa1-150; EpiCypher, 15-0069; purchased EpiCypher 15-0069
T1 sequence (Q03111 1-150): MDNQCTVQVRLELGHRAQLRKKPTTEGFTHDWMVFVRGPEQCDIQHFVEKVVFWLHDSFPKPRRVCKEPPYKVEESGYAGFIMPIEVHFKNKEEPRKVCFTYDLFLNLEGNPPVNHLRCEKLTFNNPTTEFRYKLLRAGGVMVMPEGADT
Nature of the test: TR-FRET ENL Screening Assay, FRET Assay Protocol 1. The note with it: H3K9cr peptide (aa1-20). As for the experimental part: Compounds of the invention were dissolved in DMSO at a concentration of 3 mM with subsequent dilutions in assay buffer (50 mM HEPES PH7.0, 150 mM NaCl, 0.05% BSA, 0.2% Pluronic F-127) such that the assay contained 1% DMSO. […] Low control (LC) wells received 5 uL of assay buffer instead of ENL protein. […] Compound concentration response curves were performed in duplicate over the concentration range of 0.15 nM-30 uM. The response at each compound concentration minus the LC value was converted to percent inhibition of the vehicle control group response (HC-LC). The relationship between the % inhibition and the compound concentration was analyzed using a four parameter logistic equation to estimate lower and upper asymptotes, the compound concentration producing 50% inhibition (IC50 value) and the slope at the mid-point location.
On the technique in general: TR-FRET usually uses a lanthanide donor and a delayed reading to cut background.

The structures appear in SMILES notation.

`Cc1noc2ccc(C(=O)Nc3cc4[nH]c(CN5CCC[C@@H]5C)cc4cn3)cc12` [Example 2, 3-methyl-N-(2-[[(2S)-2-methylpyrrolidin-1-yl]methyl]-1H-pyrrolo[3,2-c]pyridin-6-yl)-1,2-benzoxazole-5-carboxamide] displayed a half-maximal inhibitory concentration (IC50) of 465 nM.

`Cc1nc2cc(C(=O)Nc3cc4[nH]c(CN5CCC[C@@H]5C)cc4cn3)ccc2o1` [Example 3, 2-methyl-N-(2-[[(2S)-2-methylpyrrolidin-1-yl]methyl]-1H-pyrrolo[3,2-c]pyridin-6-yl)-1,3-benzoxazole-5-carboxamide] yielded an IC50 of 884 nM.

The compound `Cc1nc2ccc(C(=O)Nc3cc4[nH]c(CN5CCC[C@@H]5C)cc4cn3)cc2o1` [Example 4] had an IC50 of 569 nM.

Regarding `Cc1c2ccc(C(=O)Nc3cc4[nH]c(CN5CCC[C@@H]5C)cc4cn3)cc2nn1C` [Example 8], the IC50 came out at 245 nM. Compared with the last compound, the IC50 is about 2.3-fold lower.

`COCC1CCN(Cc2cc3cnc(NC(=O)c4ccc5c(cnn5C)c4)cc3[nH]2)C1` (centres unmarked) [Example 9] gave a half-inhibitory concentration (IC50) of 283 nM. This IC50 and that of the compound before are within 1.5-fold of each other.

The compound `CC(c1ccc(C(=O)Nc2cc3[nH]c(CN4CCC[C@@H]4C)cc3cn2)cc1)c1ccccn1` (stereo partly drawn) [Example 10, N-(2-[[(2S)-2-methylpyrrolidin-1-yl]methyl]-1H-pyrrolo[3,2-c]pyridin-6-yl)-4-[1-(pyridin-2-yl)ethyl]benzamide] had a half-maximal inhibitory concentration (IC50) of 1780 nM.

For `Cc1cnc(-c2ccc(C(=O)Nc3cc4[nH]c(CN5CCC[C@@H]5C)cc4cn3)c(F)c2)nc1` [Example 14, 2-fluoro-4-(5-methylpyrimidin-2-yl)-N-(2-[[(2S)-2-methylpyrrolidin-1-yl]methyl]-1H-pyrrolo[3,2-c]pyridin-6-yl)benzamide], the IC50 was determined as 1420 nM.

For the compound `C[C@H]1CCCN1Cc1cc2cnc(NC(=O)c3ccc4ncccc4c3)cc2[nH]1` [Example 15], the half-inhibitory concentration (IC50) worked out at 263 nM.

As for `C[C@H]1CCCN1Cc1cc2cnc(NC(=O)c3ccc4c(c3)OCC(=O)N4)cc2[nH]1` [Example 16, N-(2-[[(2S)-2-methylpyrrolidin-1-yl]methyl]-1H-pyrrolo[3,2-c]pyridin-6-yl)-3-oxo-2,4-dihydro-1,4-benzoxazine-7-carboxamide], the IC50 was found to be 1160 nM.

As to `C[C@H]1CCCN1Cc1cc2cnc(NC(=O)c3ccc4c(c3)OCC(=O)N4C)cc2[nH]1` [Example 17, 4-methyl-N-(2-[[(2S)-2-methylpyrrolidin-1-yl]methyl]-1H-pyrrolo[3,2-c]pyridin-6-yl)-3-oxo-2H-1,4-benzoxazine-7-carboxamide], the 50% inhibitory concentration (IC50) is 441 nM.

Regarding `C[C@H]1CCCN1Cc1cc2cnc(NC(=O)c3ccc(-c4cnn(CCO)c4)cc3)cc2[nH]1` [Example 20, 4-[1-(2-hydroxyethyl)pyrazol-4-yl]-N-(2-[[(2S)-2-methylpyrrolidin-1-yl]methyl]-1H-pyrrolo[3,2-c]pyridin-6-yl)benzamide], the half-inhibitory concentration (IC50) was determined as 166 nM.

On to `C[C@H]1CCCN1Cc1cc2cnc(NC(=O)c3ccc4cc[nH]c(=O)c4c3)cc2[nH]1` [Example 25], for which the IC50 is 395 nM. This IC50 lies about 2.4-fold higher than the previous one.

`C[C@H]1CCCN1Cc1cc2cnc(NC(=O)c3ccc4c(c3)CNC(=O)C4)cc2[nH]1` [Example 26] displayed a half-inhibitory concentration (IC50) of 435 nM. This IC50 and that of the compound before are within 1.5-fold of each other.

The compound `COCC#CCn1ncc2cc(C(=O)Nc3cc4[nH]c(CN5CCC[C@@H]5C)cc4cn3)ccc21` [Example 27, 1-(4-methoxybut-2-yn-1-yl)-N-(2-[[(2S)-2-methylpyrrolidin-1-yl]methyl]-1H-pyrrolo[3,2-c]pyridin-6-yl)indazole-5-carboxamide] showed a half-inhibitory concentration (IC50) of 258 nM.

In turn, `CC(c1ccncc1)c1ccc(C(=O)Nc2cc3[nH]c(CN4CCC[C@@H]4C)cc3cn2)cc1` (stereo partly drawn) [Example 29, N-(2-[[(2S)-2-methylpyrrolidin-1-yl]methyl]-1H-pyrrolo[3,2-c]pyridin-6-yl)-4-[1-(pyridin-4-yl)ethyl]benzamide] returned a half-maximal inhibitory concentration (IC50) of 527 nM.

In the case of `C[C@H]1CCCN1Cc1cc2cnc(NC(=O)c3ccc(-c4ccnn4C)cc3F)cc2[nH]1` [Example 31], the IC50 came out at 864 nM.

Compound `C[C@H]1CCCN1Cc1cc2cnc(NC(=O)c3ccc(-c4cn(C)nn4)cc3F)cc2[nH]1` [Example 33] returned a half-inhibitory concentration (IC50) of 418 nM. This IC50 lies about 2.1-fold lower than the previous one.

The compound `Cc1ccc(-c2ccc(C(=O)Nc3cc4[nH]c(CN5CCC[C@@H]5C)cc4cn3)c(F)c2)nn1` [Example 35] gave an IC50 of 657 nM.

Regarding `Cc1cnnc(-c2ccc(C(=O)Nc3cc4[nH]c(CN5CCC[C@@H]5C)cc4cn3)c(F)c2)c1` [Example 36], the half-maximal inhibitory concentration (IC50) amounted to 669 nM.

In the case of `C[C@H]1CCCN1Cc1cc2cnc(NC(=O)c3ccc4c(cnn4-c4ccncc4)c3)cc2[nH]1` [Example 37, N-(2-[[(2S)-2-methylpyrrolidin-1-yl]methyl]-1H-pyrrolo[3,2-c]pyridin-6-yl)-1-(pyridin-4-yl) indazole-5-carboxamide], the IC50 worked out at 239 nM.

As to `C[C@H]1CCCN1Cc1cc2cnc(NC(=O)c3ccc4nccnc4c3)cc2[nH]1` [Example 38], the 50% inhibitory concentration (IC50) was determined as 489 nM.

Regarding `C[C@H]1CCCN1Cc1cc2cnc(NC(=O)c3ccc4nnccc4c3)cc2[nH]1` [Example 39], the IC50 amounted to 368 nM.

The compound `C[C@H]1CCCN1Cc1cc2cnc(NC(=O)c3ccc4c(c3)CCCN4C)cc2[nH]1` [Example 40, 1-methyl-N-(2-[[(2S)-2-methylpyrrolidin-1-yl]methyl]-1H-pyrrolo[3,2-c]pyridin-6-yl)-3,4-dihydro-2H-quinoline-6-carboxamide] came in with a half-maximal inhibitory concentration (IC50) of 2520 nM.

`C[C@H]1CCCN1Cc1cc2ncc(NC(=O)c3ccc(-c4cc[nH]n4)cc3F)cc2[nH]1` [Example 41] displayed an IC50 of 410 nM. This IC50 lies about 6.1-fold lower than the previous one.

In turn, `C[C@H]1CCCN1Cc1cc2cnc(NC(=O)c3ccc(-c4cc[nH]n4)cc3F)cc2[nH]1` [Example 43, 2-fluoro-N-(2-[[(2S)-2-methylpyrrolidin-1-yl]methyl]-1H-pyrrolo[3,2-c]pyridin-6-yl)-4-(1H-pyrazol-3-yl)benzamide] yielded a concentration for half-maximal inhibition (IC50) of 699 nM.

In turn, `COc1cc(C(=O)Nc2cc3[nH]c(CN4CCC[C@@H]4C)cc3cn2)c(F)cc1-c1ccn[nH]1` [Example 44] displayed an IC50 of 760 nM.

In turn, `C[C@@H]1CCN1Cc1cc2cnc(NC(=O)c3ccc4c(cnn4C)c3)cc2[nH]1` [Example 45, 1-methyl-N-(2-[[(2R)-2-methylazetidin-1-yl]methyl]-1H-pyrrolo[3,2-c]pyridin-6-yl)indazole-5-carboxamide] gave an IC50 of 2180 nM.

On to `C[C@H]1CCCN1Cc1cc2cnc(NC(=O)c3ccc(-c4cnn(C5CC5)c4)cc3)cc2[nH]1` [Example 49], for which the 50% inhibitory concentration (IC50) worked out at 151 nM. This IC50 lies about 14-fold lower than the previous one.

For `C[C@H]1CCCN1Cc1cc2cnc(NC(=O)c3ccc4onc(C5CC5)c4c3)cc2[nH]1` [Example 53, 3-cyclopropyl-N-(2-[[(2S)-2-methylpyrrolidin-1-yl]methyl]-1H-pyrrolo[3,2-c]pyridin-6-yl)-1,2-benzoxazole-5-carboxamide], the IC50 came out at 417 nM. This IC50 is about 2.8-fold higher than that of the compound before.

With `C[C@H]1CCCN1Cc1cc2cnc(NC(=O)c3ccc(-n4ccnc4)cc3)cc2[nH]1` [Example 54], the 50% inhibitory concentration (IC50) was determined as 212 nM. Against the preceding compound, the IC50 is about 2-fold lower.

Compound `C[C@H]1CCCN1Cc1cc2cnc(NC(=O)c3ccc4nc(N)ccc4c3)cc2[nH]1` [Example 58] displayed an IC50 of 295 nM.

Take `C[C@H]1CCCN1Cc1cc2cnc(NC(=O)c3ccc4nc(N)ncc4c3)cc2[nH]1` [Example 59]: the IC50 worked out at 513 nM.

`C[C@H]1CCCN1Cc1cc2cnc(NC(=O)c3ccc4c(=O)[nH]ccc4c3)cc2[nH]1` [Example 61] returned an IC50 of 325 nM.

For the compound `C[C@H]1CCCN1Cc1cc2cnc(NC(=O)c3nc4ccc(O)cc4[nH]3)cc2[nH]1` [Example 63], the IC50 was found to be 1960 nM.

As for `C[C@H]1CCCN1Cc1cc2cnc(NC(=O)c3nc4cc(N)ccc4[nH]3)cc2[nH]1` [Example 64], the IC50 amounted to 1350 nM.

In the case of `C[C@H]1CCCN1Cc1cc2cnc(NC(=O)c3ccc4cnccc4c3)cc2[nH]1` [Example 65], the IC50 was 137 nM. This IC50 is about 9.9-fold lower than that of the compound before.

`Cc1c[nH]c2cc(C(=O)Nc3cc4[nH]c(CN5CCC[C@@H]5C)cc4cn3)ccc12` [Example 68]: the IC50 worked out at 622 nM. Against the preceding compound, the IC50 is about 4.5-fold higher.

`CC1C(=O)Nc2cc(C(=O)Nc3cc4[nH]c(CN5CCC[C@@H]5C)cc4cn3)ccc21` (stereo partly drawn) [Example 69, 3-methyl-N-(2-[[(2S)-2-methylpyrrolidin-1-yl]methyl]-1H-pyrrolo[3,2-c]pyridin-6-yl)-2-oxo-1,3-dihydroindole-6-carboxamide] had an IC50 of 412 nM.

`COCCn1cc(-c2ccc(C(=O)Nc3cc4[nH]c(CN5CCC[C@@H]5C)cc4cn3)nc2)cn1` [Example 71] showed an IC50 of 1040 nM.

In turn, `COCCn1cc(-c2ccc(C(=O)Nc3cc4[nH]c(CN5CCC[C@@H]5C)cc4cn3)c(F)c2)cn1` [Example 72] came in with an IC50 of 364 nM.

The compound `C[C@H]1CCCN1Cc1cc2cnc(NC(=O)c3ncc(-c4cn[nH]c4)cc3F)cc2[nH]1` [Example 74] yielded a half-maximal inhibitory concentration (IC50) of 1090 nM. This IC50 lies about 3-fold higher than the previous one.

For `C[C@H]1CCCN1Cc1cc2cnc(NC(=O)c3ccc(-n4ccnc4)cn3)cc2[nH]1` [Example 75], the IC50 is 2340 nM.

Compound `C[C@H]1CCCN1Cc1cc2cnc(NC(=O)c3ccc(-c4c[nH]cn4)cn3)cc2[nH]1` [Example 76] came in with an IC50 of 1590 nM.

`C[C@H]1CCCN1Cc1cc2cnc(NC(=O)c3ccc(-c4cn[nH]c4)cn3)cc2[nH]1` [Example 77] yielded a 50% inhibitory concentration (IC50) of 963 nM.

The compound `C[C@H]1CCCN1Cc1cc2cnc(NC(=O)c3cc4cnccc4cn3)cc2[nH]1` [Example 78] registered a half-maximal inhibitory concentration (IC50) of 145 nM.

Consider `C[C@H]1CCCN1Cc1cc2cnc(NC(=O)c3ccc4[nH]nnc4c3)cc2[nH]1` [Example 79], for which the half-inhibitory concentration (IC50) is 511 nM.

In turn, `C[C@H]1CCCN1Cc1cc2cnc(NC(=O)c3ccc(C(=N)N)cc3)cc2[nH]1` [Example 80] showed an IC50 of 1900 nM.

The values are drawn from patent US20230027198A1 (The Rockefeller University, priority 2019, published 2023).
